Where a SMILES comes first, the peptide text is derived from it. The star is where a group is joined. Cbz = O=C(OCc1ccccc1)*
Experiments:
Assay type in all cases: cell-based, human
TDP-43 [1] = experiment: TDP-43 localization by immunostaining, Pearson's correlation with DAPI, after MG-132 pulse-chase
Method: For immunofluorescence, cells were fixed with ice-cold 4% PFA for 15 minutes at 4° C., permeabilized with 0.2% Triton-X in lx PBS for 45 minutes and blocked with 10% donkey serum in lx PBS-T (0.1% Tween-20) for 1 hour. Cells were then incubated overnight at 4° C. with primary antibody (diluted in blocking solution). At least 4 washes (5 min incubation each) with 1×PBS-T were carried out, before incubating the cells with secondary antibodies for 1 hour at room temperature (diluted in blocking solution). Nuclei were stained with DAPI. The following antibodies were used in this study: Hb9 (1:100, DSHB, MNR2 81.5C10-c), TUJ1 (1:1000, Sigma, T2200), MAP2 (1:10000, Abcam ab5392), Ki67 (1:400, Abcam, ab833), GFP (1:500, Life Technologies™, A10262), Islet1 (1:500, Abcam ab20670), TDP-43 (1:500, ProteinTech Group), STMN2 (1:4000, Novus), AlexaFluor™ 647-Phalloidin (1:200,). Secondary antibodies used (488, 555, 594, and 647) were AlexaFluor™ (1:1000, Life Technologies™) and DyLight (1:500, Jackson ImmunoResearch Laboratories). Micrographs were analyzed using FIJI software to determine the correlation coefficient.

TDP-43 [2] = experiment: immunoblot of TDP-43 in detergent-soluble (RIPA) and detergent-insoluble (UREA) fractions after MG-132
Method: (§1) To determine what happened to TDP-43 after proteasome inhibition, TDP-43 levels were examined by immunoblot analysis in both the detergent-soluble and detergent-insoluble fractions. […] Finally, STMN2 levels in neurons treated with either a short-term high dose or a long-term low dose of MG-132 were probed.
For analysis of TDP-43 and STMN2 protein expression levels, d10 MNs were lysed in RIPA buffer (150 mM Sodium Chloride; 1% Triton X-100; 0.5% sodium deoxycholate; 0.1% SDS; 50 mM Tris pH 8.0) containing protease and phosphatase inhibitors (Roche) for 20 min on ice, and centrifuged at high speed. 200 μL of RIPA buffer per well of 24-well culture were routinely used, which yielded ˜20 μg of total protein as determined by BCA (Thermo Scientific). After two washes with RIPA buffer, insoluble pellets were resuspended in 200 μl of UREA buffer (Bio-Rad). For immunoblot assays 2-3 μg of total protein were separated by SDS-PAGE (BioRad), transferred to PDVF membranes (BioRad) and probed with antibodies against TDP-43 (1:1000, ProteinTech Group), GAPDH (1:1000, Millipore) and STMN2 (1:3000, Novus). Insoluble pellets were loaded based on protein concentration of correspondent RIPA-soluble counterparts. […] GAPDH levels were used to normalized each sample, and LiCor software was used to quantitate protein band signal.

STMN2 [3] = experiment: qRT-PCR of STMN2 expression in hMNs treated with proteasome inhibitors; settings: short-term high dose or long-term low dose
Method: as §1
Total RNA was isolated from d10 MNs for RNA-Seq experiments and validation assays using Trizol LS (Invitrogen) according to manufacturer's instructions. 500 μL were added per well of the 24-well cultures. A total of 300-1000 ng of total RNA was used to synthesize cDNA by reverse transcription according to the iSCRIPT kit (Bio-rad). Quantitative RT-PCR (qRT-PCR) was then performed using SYBR green (Bio-Rad) and the iCycler system (Bio-rad). Quantitative levels for all genes assayed were normalized using GAPDH expression. […] All primer sequences are available upon request. For next-generation RNA sequencing (RNA-Seq), at least two technical replicas per siRNA sample or AAVS1-TDP43 genotype were included in the analyses. After RNA extraction, samples with RNA integrity numbers (RIN) above 7.5, determined by a bioAnalyzer, were used for library preparation. […] All FASTQ files were analyzed using the bcbioRNASeq workflow and toolchain (90). […]

STMN2 cryptic exon = experiment: RT-PCR detection of transcripts containing the STMN2 cryptic exon in hMNs treated with proteasome inhibitors
Method: It was then asked if cryptic exon inclusion could be contributing to decreased STMN2 levels in hMNs after proteasome inhibition. To accomplish this goal, an RT-PCR assay was developed to detect transcripts containing the cryptic exon (FIG. 5F). […] Total RNA was isolated from neurons using RNeasy Mini Kit (Qiagen) according to manufacturer's instructions. A total of 300-1000 ng of total RNA was used to synthesize cDNA by reverse transcription according to the iSCRIPT kit (Bio-rad). RT-PCR was then performed using one cryptic exon-specific primer and then analyzed using the Agilent 2200 Tapestation.

STMN2 RNA = experiment: qRT-PCR of full-length STMN2 after proteasome inhibition with MG-132 in patient's motor neurons; settings: MG-132 (1 uM); patient's neurons
Text: It was established that ASO (SJ+94) and ASO (SJ-1) suppressed cryptic splicing of STMN2 and restored full length STMN2 RNA in the patient's motor neurons when there is a reduction in nuclear TDP-43. […] Post-mortem tissue studies have shown that TDP-43 mis-localization and its aggregation in cytoplasm is a hallmark of sporadic ALS. Several groups have reported cytoplasmic aggregation of TDP-43 akin to that observed in post-mortem tissue of sporadic ALS patients occurs in response to pharmacological inhibition of the proteasome (1, 4).

STMN2 [4] = experiment: STMN2 mRNA expression in HUES3, IG2 (Stmn2 KO) and CN7 (cryptic exon deletion) lines stressed with MG132; settings: 1 uM for 24 hours
Method: Three cell lines, HUES3, IG2 (Stmn2 KO), and CN7 (cryptic exon deletion) were treated with normal media or media+1 uM MG132 for 24 hours to stress the cells. In HUES3 cells, the stressed condition had 52% STMN2 mRNA expression compared to the unstressed condition. In IG2 (Stmn2 KO) condition, unstressed cells had 13% expression, and when stressed, expression increased to 42%. […] It was shown that if several exons are knocked out the expression goes down, but if the TDP-43 binding site is removed, expression goes way up.

proteasome = proteasome activity assay in hMNs treated with MG-132; settings: overnight 1 μM treatment

Structure (SMILES): CC(C)C[C@@H](C=O)NC(=O)[C@H](CC(C)C)NC(=O)[C@H](CC(C)C)NC(=O)OCc1ccccc1 [MG-132] (Cbz-Leu-Leu-Leu-aldehyde)
- TDP-43 staining in the nucleus (TDP-43 [1]; 24 hour 1 μM pulse, hMNs): greatly diminished
- TDP-43 staining following washout (TDP-43 [1]; after 24 hour 1 μM pulse and washout): indistinguishable to unchallenged neurons after 4 days
- TDP-43 levels in soluble lysates (TDP-43 [2]; control neurons treated with a low dose): significantly decreased TDP-43 levels
- TDP-43 in UREA (insoluble) fraction (TDP-43 [2]; proteasome inhibition): triggers TDP-43 to become insoluble
- STMN2 mRNA levels (STMN2 [3]): significant decreases
- transcripts containing the STMN2 cryptic exon (PCR assay) (STMN2 cryptic exon): presence of transcripts containing the STMN2 cryptic exon
- STMN2 expression after proteasome inhibition (STMN2 RNA): decreased STMN2 expression
- STMN2 mRNA expression (STMN2 [4]; CN7 (Cryptic Exon Deletion) cells, unstressed 729%): 473%
- STMN2 mRNA expression compared to the unstressed condition (STMN2 [4]; HUES3 cells): 52%
- STMN2 mRNA expression (STMN2 [4]; IG2 (Stmn2 KO) cells, unstressed 13%): 42%
- proteasome activity (proteasome): less than 10 % of normal activity
